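Abbreviation: GI50, concentration required for 50% inhibition of growth. Definition used: TGI = concentration required for complete inhibition of growth.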
How the values were obtained:
Experiment in all cases: inhibition of tumour cell growth, NCI panel, 384-well format
[1] = system: OVCAR-3 ovarian
[2] = system: MALME-3M melanoma
[3] = system: 786-0 renal
[4] = system: LOX IMVI melanoma
[5] = system: TK-10 renal
[6] = system: SW-620 colon
[7] = system: SF-539 CNS
[8] = system: HS 578T breast
[9] = system: SNB-75 CNS
[10] = system: MDA-MB-468 breast
[11] = system: BT-549 breast
[12] = system: U251 glioblastoma
[13] = system: MDA-MB-231 breast
[14] = system: SK-MEL-5 melanoma
[15] = system: HOP-62 NSCLC
[16] = system: CCRF-CEM leukemia
[17] = system: RXF 393 renal
[18] = system: UACC-257 melanoma
[19] = system: UACC-62 melanoma
[20] = system: PC-3 prostate
[21] = system: SF-295 CNS
[22] = system: K-562 leukemia
[23] = system: SN12C renal
[24] = system: NCI-H460 NSCLC
[25] = system: OVCAR-4 ovarian
[26] = system: CAKI-1 renal
[27] = system: NCI-H23 lung
[28] = system: HCC-2998 colon
[29] = system: KM12 colon
[30] = system: HL-60(TB) leukemia
[31] = system: M14 melanoma
[32] = system: OVCAR-8 ovarian
[33] = system: ACHN renal
[34] = system: NCI-H226 lung
[35] = system: COLO 205 colon
[36] = system: A498 renal
[37] = system: SNB-19 CNS
[38] = system: HT29 colon
[39] = system: HCT-15 colon
[40] = system: UO-31 renal
[41] = system: NCI/ADR-RES ovarian
[42] = system: NCI-H522 lung
[43] = system: MCF7 breast
[44] = system: MDA-MB-435 melanoma
[45] = system: HOP-92 NSCLC
[46] = system: DU-145 prostate
[47] = system: SK-OV-3 ovarian
[48] = system: HCT-116 colon
[49] = system: NCI-H322M lung
[50] = system: EKVX NSCLC
[51] = system: T-47D breast
[52] = system: SF-268 CNS
[53] = system: RPMI-8226 leukemia
[54] = system: OVCAR-5 ovarian
[55] = system: SK-MEL-28 melanoma
[56] = system: MOLT-4 leukemia
[57] = system: IGROV1 ovarian
[58] = system: A549 NSCLC

CNC(=O)c1c(F)cccc1Nc1nc(Nc2cc3c(cc2OC)CCN3C(=O)CN(C)C)nc2[nH]ccc12
GI50 [1]: 1.8 µM | TGI [1]: 3.25 µM | GI50 [2]: 1.25 µM | TGI [2]: 2.51 µM | GI50 [3]: 1.48 µM | TGI [3]: 2.84 µM | GI50 [4]: 1.61 µM | TGI [4]: 2.97 µM | GI50 [5]: 1.86 µM | TGI [5]: 3.54 µM | GI50 [6]: 1.18 µM | TGI [6]: 2.44 µM | GI50 [7]: 1.8 µM | TGI [7]: 3.2 µM | GI50 [8]: 1.78 µM | TGI [8]: 3.19 µM | GI50 [9]: 2 µM | TGI [9]: 3.46 µM | GI50 [10]: 1.56 µM | TGI [10]: 2.92 µM | GI50 [11]: 1.66 µM | TGI [11]: 3.04 µM | GI50 [12]: 1.9 µM | TGI [12]: 3.35 µM | GI50 [13]: 1.59 µM | TGI [13]: 2.98 µM | GI50 [14]: 1.22 µM | TGI [14]: 2.48 µM | GI50 [15]: 1.83 µM | TGI [15]: 3.39 µM | GI50 [16]: 0.387 µM | TGI [16]: 1.22 µM | GI50 [17]: 1.72 µM | TGI [17]: 3.11 µM | GI50 [18]: 1.72 µM | TGI [18]: 3.11 µM | GI50 [19]: 1.56 µM | TGI [19]: 2.91 µM | GI50 [20]: 2.19 µM | TGI [20]: 4.45 µM | GI50 [21]: 1.87 µM | TGI [21]: 3.29 µM | GI50 [22]: 1.75 µM | TGI [22]: 3.14 µM | GI50 [23]: 2.05 µM | TGI [23]: 3.5 µM | GI50 [24]: 1.24 µM | TGI [24]: 2.53 µM | GI50 [25]: 1.99 µM | TGI [25]: 3.5 µM | GI50 [26]: 1.82 µM | TGI [26]: 3.24 µM | GI50 [27]: 1.33 µM | TGI [27]: 2.75 µM | GI50 [28]: 1.41 µM | TGI [28]: 2.76 µM | GI50 [29]: 1.44 µM | TGI [29]: 2.77 µM | GI50 [30]: 0.0711 µM | TGI [30]: 0.944 µM | GI50 [31]: 1.51 µM | TGI [31]: 2.84 µM | GI50 [32]: 1.71 µM | TGI [32]: 3.12 µM | GI50 [33]: 1.74 µM | TGI [33]: 3.17 µM | GI50 [34]: 1.74 µM | TGI [34]: 3.74 µM | GI50 [35]: 0.152 µM | TGI [35]: 1.23 µM | GI50 [36]: 1.82 µM | TGI [36]: 3.22 µM | GI50 [37]: 2.35 µM | TGI [37]: 4.81 µM | GI50 [38]: 0.181 µM | TGI [38]: 1.87 µM | GI50 [39]: 1.25 µM | TGI [39]: 2.61 µM | GI50 [40]: 1.84 µM | TGI [40]: 3.29 µM | GI50 [41]: 2.23 µM | TGI [41]: 4.98 µM | GI50 [42]: 1.91 µM | TGI [42]: 3.33 µM | GI50 [43]: 0.21 µM | TGI [43]: 1.72 µM | GI50 [44]: 1.51 µM | TGI [44]: 2.86 µM | GI50 [45]: 1.15 µM | TGI [45]: 2.42 µM | GI50 [46]: 1.82 µM | TGI [46]: 3.6 µM | GI50 [47]: 1.97 µM | TGI [47]: 3.45 µM | GI50 [48]: 1.44 µM | TGI [48]: 2.79 µM | GI50 [49]: 1.58 µM | TGI [49]: 3.18 µM | GI50 [50]: 1.6 µM | TGI [50]: 3.09 µM | GI50 [51]: 1.94 µM | TGI [51]: 3.38 µM | GI50 [52]: 1.3 µM | TGI [52]: 2.61 µM | GI50 [53]: 1.14 µM | TGI [53]: 2.37 µM | GI50 [54]: 1.48 µM | TGI [54]: 3.24 µM | GI50 [55]: 1.87 µM | TGI [55]: 3.27 µM | GI50 [56]: 0.968 µM | TGI [56]: 2.14 µM | GI50 [57]: 1.76 µM | TGI [57]: 3.27 µM | GI50 [58]: 1.41 µM | TGI [58]: 2.76 µM

Source: PubChem BioAssay (NCI)
